Laboratory results from US10556902B2 (Asceneuron SA, priority 2016, dated 2020).

Molecular target: His-Tagged hOGA (human O-GlcNAcase) (Homo sapiens (Human), UniProt O60502)
Assay: Human O-GlcNAcase enzyme inhibition assay;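 further: reactions contained 20 nM His-tagged hOGA enzyme with 10 µM FL-GlcNAc substrate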
Format: biochemical
Conditions: OGA enzyme inhibition assay; FL-GlcNAc substrate, pH 6.5; activity classes defined in μM; read-out: OGA IC50
Protocol: Then, 20 nM of His-Tagged hOGA and 10 μM of FL-GlcNAc (Fluorescein mono-beta-D-(2-deoxy-2-N-acetyl) glucopyranoside; Marker Gene Technologies Inc, M1485) were added to the 384-well plate for a final volume of 20 μl.

Chain of His-Tagged hOGA (human O-GlcNAcase) (O60502 whole entry): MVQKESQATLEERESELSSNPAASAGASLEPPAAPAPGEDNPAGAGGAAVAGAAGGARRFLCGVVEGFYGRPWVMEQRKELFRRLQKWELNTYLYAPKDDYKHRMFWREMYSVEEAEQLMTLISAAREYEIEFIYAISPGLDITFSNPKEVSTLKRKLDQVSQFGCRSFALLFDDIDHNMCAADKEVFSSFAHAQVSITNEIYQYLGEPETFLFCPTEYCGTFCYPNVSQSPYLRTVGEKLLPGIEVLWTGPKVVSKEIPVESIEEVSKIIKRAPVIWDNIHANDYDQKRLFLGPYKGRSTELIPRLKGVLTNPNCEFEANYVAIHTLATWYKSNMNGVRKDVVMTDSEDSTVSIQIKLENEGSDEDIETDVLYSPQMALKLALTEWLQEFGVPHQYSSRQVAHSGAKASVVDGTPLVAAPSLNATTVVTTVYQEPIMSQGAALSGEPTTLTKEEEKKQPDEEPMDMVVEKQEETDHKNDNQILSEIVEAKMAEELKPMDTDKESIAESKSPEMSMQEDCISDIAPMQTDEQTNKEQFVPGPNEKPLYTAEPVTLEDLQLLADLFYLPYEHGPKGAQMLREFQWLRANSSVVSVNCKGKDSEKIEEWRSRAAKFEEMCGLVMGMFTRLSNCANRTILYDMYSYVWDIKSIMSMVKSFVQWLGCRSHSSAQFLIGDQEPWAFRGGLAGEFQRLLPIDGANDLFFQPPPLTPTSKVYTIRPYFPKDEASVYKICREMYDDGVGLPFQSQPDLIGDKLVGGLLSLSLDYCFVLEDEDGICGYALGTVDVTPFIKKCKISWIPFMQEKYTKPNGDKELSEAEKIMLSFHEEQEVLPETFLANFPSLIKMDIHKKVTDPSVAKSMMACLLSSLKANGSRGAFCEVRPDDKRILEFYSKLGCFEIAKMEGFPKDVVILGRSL

SMILES	IC50 [µM]
Cc1ccc(N2CCN(C(C)c3ccc4nccnc4c3)CC2)nn1 (racemic) [Example 44, 6-(1-(4-(6-Methylpyridazin-3-yl)piperazin-1-yl)ethyl)quinoxaline]	0.2 to 1
CC(c1ccc2c(c1)OCC2)N1CCN(c2ccc(S(C)(=O)=O)nn2)CC1 (racemic) [Example 45, 3-(4-(1-(2,3-dihydrobenzofuran-6-yl)ethyl)piperazin-1-yl)-6-(methylsulfonyl)pyridazine]	< 0.05
CC(O)c1ccc(N2CCN(C(C)c3ccc4c(c3)OCC4)CC2)nc1 (racemic) [Example 47, 1-(6-(4-(1-(2,3-dihydrobenzofuran-6-yl)ethyl)piperazin-1-yl)pyridin-3-yl)ethan-1-ol]	< 0.05
CC(c1ccc2c(c1)OCC2)N1CCN(c2ccc(C(C)(C)O)cn2)CC1 (racemic) [Example 48, 2-(6-(4-(1-(2,3-dihydrobenzofuran-6-yl)ethyl)piperazin-1-yl)pyridin-3-yl)propan-2-ol]	< 0.05
CC(C)C(O)c1ccc(N2CCN(C(C)c3ccc4c(c3)OCC4)CC2)nc1 (racemic) [Example 49, 1-(6-(4-(1-(2,3-dihydrobenzofuran-6-yl)ethyl)piperazin-1-yl)pyridin-3-yl)-2-methylpropan-1-ol]	< 0.05
CC(c1ccc2c(c1)OCC2)N1CCN(c2ccc(C(O)C(F)(F)F)cn2)CC1 (racemic) [Example 50, 1-(6-(4-(1-(2,3-dihydrobenzofuran-6-yl)ethyl)piperazin-1-yl)pyridin-3-yl)-2,2,2-trifluoroethan-1-ol]	< 0.05
CC(c1ccc2nccnc2c1)N1CCN(c2ccc(C(C)(C)O)cn2)CC1 (racemic) [Example 51, 2-(6-(4-(1-(quinoxalin-6-yl)ethyl)piperazin-1-yl)pyridin-3-yl) propan-2-ol]	0.05 to 0.2
CC(O)c1ccc(N2CCN(C(C)c3ccc4nccnc4c3)CC2)nc1 (racemic) [Example 52, 1-(6-(4-(1-(quinoxalin-6-yl)ethyl)piperazin-1-yl)pyridin-3-yl)ethan-1-ol]	0.2 to 1
COc1ccc(N2CCN(C(C)c3ccc4nccnc4c3)CC2)cn1 (racemic) [Example 53, 6-(1-(4-(6-methoxypyridin-3-yl)piperazin-1-yl)ethyl)quinoxaline]	0.2 to 1
CC(c1ccc2nccnc2c1)N1CCN(c2ccc(=O)[nH]c2)CC1 (racemic) [Example 54, 5-(4-(1-(quinoxalin-6-yl)ethyl)piperazin-1-yl)pyridin-2(1H)-one]	0.2 to 1
CC(C)C(O)c1ccc(N2CCN(C(C)c3ccc4nccnc4c3)CC2)nc1 (racemic) [Example 55, 2-methyl-1-(6-(4-(1-(quinoxalin-6-yl)ethyl)piperazin-1-yl)pyridin-3-yl)propan-1-ol]	0.2 to 1
CC(c1ccc2nccnc2c1)N1CCN(c2ccc(C(O)C(F)(F)F)cn2)CC1 (racemic) [Example 56, 2,2,2-trifluoro-1-(6-(4-(1-(quinoxalin-6-yl)ethyl)piperazin-1-yl)pyridin-3-yl)ethan-1-ol]	0.05 to 0.2
CC(c1ccc2nccnc2c1)N1CCN(c2ccc(C3(O)CCOCC3)cn2)CC1 (racemic) [Example 57, 4-(6-(4-(1-(quinoxalin-6-yl)ethyl)piperazin-1-yl)pyridin-3-yl)tetrahydro-2H-pyran-4-ol]	0.05 to 0.2
CC(c1ccc2nccnc2c1)N1CCN(c2ccc(C3(O)CCOC3)cn2)CC1 (racemic) [Example 58, 3-(6-(4-(1-(quinoxalin-6-yl)ethyl)piperazin-1-yl)pyridin-3-yl)tetrahydrofuran-3-ol]	0.05 to 0.2
CC(c1ccc2nccnc2c1)N1CCN(c2ccc(C3(O)COC3)cn2)CC1 (racemic) [Example 59, 3-(6-(4-(1-(quinoxalin-6-yl)ethyl)piperazin-1-yl)pyridin-3-yl)oxetan-3-ol]	0.05 to 0.2
CC(c1ccc2nccnc2c1)N1CCN(c2ccc(C3(O)CCCCC3)cn2)CC1 (racemic) [Example 60, 1-(6-(4-(1-(quinoxalin-6-yl)ethyl)piperazin-1-yl)pyridin-3-yl)cyclohexan-1-ol]	0.2 to 1
CC(c1ccc2nccnc2c1)N1CCN(c2ccc(C3(O)CCCC3)cn2)CC1 (racemic) [Example 61, 1-(6-(4-(1-(quinoxalin-6-yl)ethyl)piperazin-1-yl)pyridin-3-yl)cyclopentan-1-ol]	0.05 to 0.2
COC(=O)c1ccc(N2CCN(C(C)c3ccc4c(c3)OCC4)CC2)nc1 (racemic) [Example 62, Methyl 6-(4-(1-(2,3-dihydrobenzofuran-6-yl)ethyl)piperazin-1-yl)nicotinate]	< 0.05
CC(c1ccc2c(c1)OCC2)N1CCN(c2ccc(C(=O)N(C)C)cn2)CC1 (racemic) [Example 63, 6-(4-(1-(2,3-dihydrobenzofuran-6-yl)ethyl)piperazin-1-yl)-N,N-dimethylnicotinamide]	< 0.05
CNC(=O)c1ccc(N2CCN(C(C)c3ccc4c(c3)OCC4)CC2)nc1 (racemic) [Example 64, 6-(4-(1-(2,3-dihydrobenzofuran-6-yl)ethyl)piperazin-1-yl)-N-methylnicotinamide]	< 0.05
CC(c1ccc2c(c1)OCC2)N1CCN(c2ccc(C(=O)O)cn2)CC1 (racemic) [Example 65, 6-(4-(1-(2,3-Dihydrobenzofuran-6-yl)ethyl)piperazin-1-yl)nicotinic acid]	< 0.05
COC(=O)c1ccc(N2CCN(C(C)c3ccc4nccnc4c3)CC2)nc1 (racemic) [Example 66, Methyl-6-(4-(1-(quinoxalin-6-yl)ethyl)piperazin-1-yl) nicotinate]	0.05 to 0.2
CC(c1ccc2nccnc2c1)N1CCN(c2ccc(C(=O)O)cn2)CC1 (racemic) [Example 67, 6-(4-(1-(quinoxalin-6-yl)ethyl)piperazin-1-yl) nicotinic acid]	0.05 to 0.2
CNC(=O)c1cccc(N2CCN(C(C)c3ccc4nccnc4c3)CC2)n1 (racemic) [Example 68, N-methyl-6-(4-(1-(quinoxalin-6-yl)ethyl)piperazin-1-yl) picolinamide]	0.05 to 0.2
CC(c1ccc2nccnc2c1)N1CCN(c2cccc(C(=O)N(C)C)n2)CC1 (racemic) [Example 69, N, N-dimethyl-6-(4-(1-(quinoxalin-6-yl)ethyl)piperazin-1-yl) picolinamide]	0.2 to 1
COC(=O)c1cccc(N2CCN(C(C)c3ccc4nccnc4c3)CC2)n1 (racemic) [Example 70, Methyl 6-(4-(1-(quinoxalin-6-yl)ethyl)piperazin-1-yl)picolinate]	0.2 to 1
CC(c1ccc2c(c1)OCC2)N1CCN(c2ccc(S(C)(=O)=O)cn2)CC1 (racemic) [Example 71]	< 0.05
CC(c1ccc2nccnc2c1)N1CCN(c2ccc(S(C)(=O)=O)cn2)CC1 (racemic) [Example 72, 6-(1-(4-(5-(methylsulfonyl)pyridin-2-yl)piperazin-1-yl)ethyl)quinoxaline]	0.05 to 0.2
CC(c1ccc2scnc2c1)N1CCN(c2ncc(CO)cn2)CC1 (racemic) [Example 73, (2-(4-(1-(benzo[d]thiazol-5-yl)ethyl)piperazin-1-yl)pyrimidin-5-yl)methanol]	< 0.05
CC(c1ccc2c(c1)OCC2)N1CCN(c2ncc(C(C)(C)O)cn2)CC1 (racemic) [Example 74, 2-(2-(4-(1-(2,3-dihydrobenzofuran-6-yl)ethyl)piperazin-1-yl)pyrimidin-5-yl) propan-2-ol]	< 0.05
